Measured values as given in US20060069132A1, “Azolecarboxamide herbicides” (priority 2004, published 2006).
Read-outs that look alike come from different tables or passages of the source.

Experiments:
[1] = tested on: common (oilseed) sunflower; experiment: Test C pre-/postemergence herbicide test; type: in vivo, Helianthus annuus
Summary of the method: (§1)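 Pre/post spray; non-phytotoxic solvent + surfactant. Post-timing 1–4 leaves, 2–18 cm. Read-out: visual % control vs untreated, day 12–14, greenhouse.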

[2] = tested on: goosegrass; experiment: Test C pre-/postemergence herbicide test; type: in vivo, Eleusine indica
Summary of the method: as §1

[3] = tested on: redroot pigweed; experiment: Test A pre-/postemergence herbicide test; type: in vivo, Amaranthus retroflexus; conditions: for pest or weed control at 500 g/ha / pest or weed control at 2000 g/ha: Amaranthus retroflexus, 240 h
Summary of the method: (§2)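 Greenhouse injury scoring (0–100, complete control = 100) at approximately ten days follows simultaneous pre- and postemergence application. Soil received a directed spray after seeding; seedlings of 2–10 cm at the one- to two-leaf stage were sprayed to runoff.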

[4] = tested on: rice; experiment: Test B pre-/postemergence herbicide test; type: in vivo, Oryza sativa; conditions: for Plant response rating, Rice: preemergence
Summary of the method: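 Plants compared with untreated controls 13–15 days post-treatment and given a visual 0–100 injury score. Applications: preemergence to seeds; postemergence at 1- to 4-leaf (2–18 cm); paddy species flooded, 2-leaf stage. Vehicle non-phytotoxic, surfactant included.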

[5] = tested on: velvetleaf; experiment: Test C pre-/postemergence herbicide test; type: in vivo, Abutilon theophrasti
Summary of the method: as §1

[6] = tested on: pigweed; experiment: Test C pre-/postemergence herbicide test; type: in vivo, Amaranthus retroflexus
Summary of the method: as §1

[7] = tested on: large crabgrass; experiment: Test A pre-/postemergence herbicide test; type: in vivo, Digitaria sanguinalis; conditions: for pest or weed control at 500 g/ha / pest or weed control at 2000 g/ha: Digitaria sanguinalis, 240 h
Summary of the method: as §2

[8] = tested on: large crabgrass; experiment: Test C pre-/postemergence herbicide test; type: in vivo, Digitaria sanguinalis
Summary of the method: as §1

[9] = 125 g ai/ha, scale 0 (no effect) to 100 (complete control), visual, 12 to 14 days, preemergence
[10] = Preemergence, 500 g ai/ha, scale 0 to 100, 0 no effect, 100 complete control
[11] = Postemergence, 500 g ai/ha, 0 to 100 scale, 0 no effect, 100 complete control
[12] = Postemergence, 2000 g ai/ha, 0 to 100 scale, 0 no effect, 100 complete control
[13] = Preemergence, 2000 g ai/ha, visual rating, 0 to 100 scale (0 no effect, 100 complete control)
[14] = Preemergence, 500 g ai/ha, visual rating, 0 to 100 scale (0 no effect, 100 complete control)
[15] = 250 g ai/ha, scale 0 to 100 (0 no effect, 100 complete control), visual, 12 to 14 days, preemergence
[16] = 31 g ai/ha, preemergence, scale 0 to 100
[17] = Preemergence, 2000 g ai/ha, 0 to 100 scale, 0 no effect, 100 complete control

CCc1nn(C(C)(C)C)cc1C(=O)Nc1cc(C(=O)N(C)C)ccc1F [Compound 222, N-[5-[(dimethylamino)carbonyl]-2-fluorophenyl]-1-(1,1-dimethylethyl)-3-ethyl-1H-pyrazole-4-carboxamide]
pest or weed control at 62 g/ha ([1]; Helianthus annuus, pre-emergence, 62 g ai/ha, preemergence, scale 0 to 100, read-out: Plant response rating, Sunflower): 0%
pest or weed control at 250 g/ha ([1]; Helianthus annuus, pre-emergence, 250 g ai/ha, scale 0-100, read-out: Plant response rating, Sunflower): 30%
pest or weed control at 500 g/ha ([1]; Helianthus annuus, pre-emergence, 500 g ai/ha, scale 0 to 100 (0 no effect, 100 complete control), visual, 12 to 14 days, read-out: Plant response rating, Sunflower): 30%
pest or weed control at 62 g/ha ([2]; Eleusine indica, pre-emergence, 312 h, 62 g ai/ha, preemergence, scale 0 to 100, read-out: Plant response rating, Goosegrass): 80%
pest or weed control at 125 g/ha ([2]; Eleusine indica, pre-emergence, 312 h, 125 g ai/ha, scale 0 (no effect) to 100 (complete control), visual, 12 to 14 days, read-out: Plant response rating, Goosegrass): 100%
pest or weed control at 250 g/ha ([2]; Eleusine indica, pre-emergence, 312 h, 250 g ai/ha, scale 0-100, read-out: Plant response rating, Goosegrass): 100%
pest or weed control at 500 g/ha ([2]; Eleusine indica, pre-emergence, 312 h, 500 g ai/ha, scale 0 to 100 (0 no effect, 100 complete control), visual, 12 to 14 days, read-out: Plant response rating, Goosegrass): 100%
pest or weed control at 500 g/ha ([3]; post-emergence, Postemergence, 500 g ai/ha, 0 to 100 scale, 0 no effect, 100 complete control, read-out: Pigweed plant response rating): 75%
pest or weed control at 2000 g/ha ([3]; post-emergence, Postemergence, 2000 g ai/ha, 0 to 100 scale, 0 no effect, 100 complete control, read-out: Plant response rating, Pigweed): 100%
pest or weed control at 2000 g/ha ([3]; pre-emergence, Preemergence, 2000 g ai/ha, visual rating, 0 to 100 scale (0 no effect, 100 complete control), read-out: Pigweed plant response rating): 90%
pest or weed control at 500 g/ha ([3]; pre-emergence, preemergence, 500 g ai/ha, visual injury, 0 to 100 scale (0 no effect, 100 complete control), read-out: Pigweed plant response rating): 90%
plant injury at 125 g/ha ([4]; Oryza sativa, pre-emergence, 336 h, 125 g ai/ha, 0 = no effect, 100 = complete control, read-out: Rice plant response rating (0 to 100 scale)): 90%
plant injury at 500 g/ha ([4]; Oryza sativa, pre-emergence, 336 h, 500 g ai/ha, visual rating, 0 = no effect, 100 = complete control, read-out: Plant response rating, Rice): 100%
pest or weed control at 62 g/ha ([5]; Abutilon theophrasti, pre-emergence, 62 g ai/ha, preemergence, scale 0 to 100, read-out: Plant response rating, Velvetleaf): 50%
pest or weed control at 250 g/ha ([5]; Abutilon theophrasti, pre-emergence, 250 g ai/ha, scale 0-100, read-out: Plant response rating, Velvetleaf): 100%
pest or weed control at 500 g/ha ([5]; Abutilon theophrasti, pre-emergence, 500 g ai/ha, scale 0 to 100 (0 no effect, 100 complete control), visual, 12 to 14 days, read-out: Plant response rating, Velvetleaf): 100%
pest or weed control at 62 g/ha ([6]; Amaranthus retroflexus, pre-emergence, 62 g ai/ha, preemergence, scale 0 to 100, read-out: Plant response rating, Pigweed): 100%
pest or weed control at 125 g/ha ([6]; Amaranthus retroflexus, pre-emergence, 125 g ai/ha, scale 0 (no effect) to 100 (complete control), visual, 12 to 14 days, read-out: Plant response rating, Pigweed): 100%
pest or weed control at 250 g/ha ([6]; Amaranthus retroflexus, pre-emergence, 250 g ai/ha, scale 0-100, read-out: Plant response rating, Pigweed): 100%
pest or weed control at 500 g/ha ([6]; Amaranthus retroflexus, pre-emergence, 500 g ai/ha, scale 0 to 100 (0 no effect, 100 complete control), visual, 12 to 14 days, read-out: Plant response rating, Pigweed): 100%
pest or weed control at 500 g/ha ([7]; post-emergence, Postemergence, 500 g ai/ha, 0 to 100 scale, 0 no effect, 100 complete control, read-out: Crabgrass, Large plant response rating): 80%
pest or weed control at 2000 g/ha ([7]; post-emergence, Postemergence, 2000 g ai/ha, 0 to 100 scale, 0 no effect, 100 complete control, read-out: Plant response rating, Crabgrass, Large): 85%
pest or weed control at 2000 g/ha ([7]; pre-emergence, Preemergence, 2000 g ai/ha, visual rating, 0 to 100 scale (0 no effect, 100 complete control), read-out: Crabgrass, Large plant response rating): 95%
pest or weed control at 500 g/ha ([7]; pre-emergence, preemergence, 500 g ai/ha, visual injury, 0 to 100 scale (0 no effect, 100 complete control), read-out: Crabgrass, Large plant response rating): 100%
pest or weed control at 62 g/ha ([8]; Digitaria sanguinalis, pre-emergence, 312 h, 62 g ai/ha, preemergence, scale 0 to 100, read-out: Plant response rating, Crabgrass, Large): 100%
pest or weed control at 125 g/ha ([8]; Digitaria sanguinalis, pre-emergence, 312 h, 125 g ai/ha, scale 0 (no effect) to 100 (complete control), visual, 12 to 14 days, read-out: Plant response rating, Crabgrass, Large): 100%
pest or weed control at 250 g/ha ([8]; Digitaria sanguinalis, pre-emergence, 312 h, 250 g ai/ha, scale 0-100, read-out: Plant response rating, Crabgrass, Large): 100%
pest or weed control at 500 g/ha ([8]; Digitaria sanguinalis, pre-emergence, 312 h, 500 g ai/ha, scale 0 to 100 (0 no effect, 100 complete control), visual, 12 to 14 days, read-out: Plant response rating, Crabgrass, Large): 100%

CCCCOc1cccc(NC(=O)c2cc(C(C)(C)C)nn2CC)c1 [Compound 137]
Plant response rating (0 = no effect, 100 = complete control), Sunflower ([1]; 62 g ai/ha, preemergence): 0
Plant response rating, Sunflower [1, 9]: 0
Sunflower plant response rating [1, 10]: 0
Plant response rating (0 = no effect, 100 = complete control), Goosegrass ([2]; 62 g ai/ha, preemergence): 40
Plant response rating, Goosegrass [2, 9]: 85
Goosegrass plant response rating [2, 10]: 100
Pigweed plant response rating [3, 11]: 90
Plant response rating, Pigweed [3, 12]: 100
Pigweed plant response rating [3, 13]: 90
Pigweed plant response rating ([3]; preemergence, 500 g ai/ha, visual injury, 0 to 100 scale (0 no effect, 100 complete control)): 60
Plant response rating, Rice ([4]; 500 g ai/ha, visual rating 0-100, 0 no effect, 100 complete control): 10
Plant response rating, Velvetleaf [5, 9]: 10
Velvetleaf plant response rating [5, 10]: 100
Plant response rating (0 = no effect, 100 = complete control), Pigweed ([6]; 62 g ai/ha, preemergence): 100
Plant response rating, Pigweed [6, 9]: 100
Pigweed plant response rating [6, 10]: 100
Crabgrass, Large plant response rating [7, 11]: 30
Plant response rating, Crabgrass, Large [7, 12]: 60
Crabgrass, Large plant response rating [7, 14]: 55
Crabgrass, Large plant response rating [7, 13]: 90
Plant response rating (0 = no effect, 100 = complete control), Crabgrass, Large ([8]; 62 g ai/ha, preemergence): 40
Plant response rating, Crabgrass, Large [8, 9]: 70
Plant response rating, Crabgrass, Large [8, 15]: 100
Crabgrass, Large plant response rating [8, 10]: 100

CCn1nc(C(C)(C)C)cc1C(=O)Nc1cccc(C(=O)NCC2CC2)c1 [Compound 62]
Plant response rating, Sunflower [1, 16]: 0
Plant response rating (0 = no effect, 100 = complete control), Sunflower ([1]; 62 g ai/ha, preemergence): 0
Plant response rating, Sunflower [1, 9]: 0
Plant response rating, Sunflower [1, 15]: 0
Plant response rating, Goosegrass [2, 16]: 0
Plant response rating (0 = no effect, 100 = complete control), Goosegrass ([2]; 62 g ai/ha, preemergence): 10
Plant response rating, Goosegrass [2, 9]: 70
Plant response rating, Goosegrass [2, 15]: 85
Plant response rating, Pigweed [3, 11]: 100
Plant response rating, Pigweed [3, 12]: 100
Pigweed plant response rating [3, 14]: 100
Pigweed plant response rating [3, 17]: 100
Plant response rating, Rice ([4]; 125 g ai/ha, 0 to 100 scale, 0 is no effect, 100 is complete control): 0
Plant response rating, Velvetleaf [5, 16]: 0
Plant response rating, Velvetleaf [5, 15]: 70
Plant response rating, Pigweed [6, 16]: 90
Plant response rating (0 = no effect, 100 = complete control), Pigweed ([6]; 62 g ai/ha, preemergence): 95
Plant response rating, Pigweed [6, 9]: 95
Plant response rating, Pigweed [6, 15]: 95
Plant response rating, Crabgrass, Large [7, 11]: 25
Plant response rating, Crabgrass, Large [7, 12]: 60
Crabgrass, Large plant response rating [7, 14]: 70
Crabgrass, Large plant response rating [7, 17]: 85
Plant response rating, Crabgrass, Large [8, 16]: 5
Plant response rating (0 = no effect, 100 = complete control), Crabgrass, Large ([8]; 62 g ai/ha, preemergence): 40
Plant response rating, Crabgrass, Large [8, 9]: 90
Plant response rating, Crabgrass, Large [8, 15]: 90
